Consider five molecules from patent US11904025B2, “Cyclophanes for live-cell imaging” (Northwestern University, priority 2018, dated 2024).

“Also recorded” adds a separate entry of the source.

For data set [1], the system named is RAW 264.7 cells. The experiment in a line: MTT assay, cell viability after 24 h incubation. Particulars: for cell viability: RAW 264.7 cells, 100 μM loading concentration, 24 h incubation. For orientation: Tetrazolium dyes change colour on reduction, which living cells bring about.
Method: Cell culture: Murine macrophages (RAW 264.7 cells) that were obtained from the American Type Culture Collection (ATCC, Rockville, MD, USA) were utilized for cell culture experiments.
After 24 h incubation, each well was added with MTT (5 mg/ml in PBS, 10 μL) and then incubated for 4 h. The media from each well was pipetted out, formazan crystals deposited on the plate were dissolved in 200 μL of dimethyl sulfoxide and the absorbance of each well was measured using a microplate reader at 560 nm.
All the samples were analyzed in quadruplicates. The percentage cell viability was then calculated using the formula: % cell viability=(OD of treated sample/OD of the untreated sample)*100.
Data set [2] has as its system RAW 264.7 macrophages. The experiment in a line: Live cell confocal microscopy. The data set is classed as cell-based, Murine. Particulars: for fluorescence inside cells after incubation: RAW 264.7 cells, 4 h incubation (6·4Cl 20 μM in PBS); for photobleaching inside cells under imaging conditions: blue laser excitation. On the procedure:
RAW 264.7 macrophages (1×10^5 cells/mL, 475 μL) were plated in each well of a 4 well p-slide (ibidi cell focus) and cultured overnight. […] After incubation, cells were washed with phenol free DMEM and stained with LysoTracker green (lysosome stain) or SYTO nuclei (nuclear stain) at 1:10,000 dilutions. Controls used were cells added with only stains, cells only and cells with materials only. Plated cells were imaged within a humidified chamber using a 100× oil-immersion objective on an SP5 Leica Confocal Microscope using HyD detectors and lasers: 405 nm diode laser for material, 561 nm HeNe laser for Lysotracker green, and 633 nm HeNe laser for SYTO 61.

Data set [3] in a line: Absolute fluorescence quantum yield. Format: physicochemical. Particulars: in H2O. How it is done:
(§1) UV/Vis Absorption spectra were recorded using a UV-3600 Shimadzu spectrophotometer. Steady-state emission spectra were acquired using HORIBA Nanolog spectrofluorimeter equipped with an integrating sphere for absolute photoluminescence quantum yield determination and time-correlated single-photon counting (TCSPC) module for emission decays of 4·2Cl in H2O. The time-resolved fluorescence (TRF) measurement of 6·4Cl in H2O was carried out with a streak camera system (Hamamatsu C4334 Streakscope).

Data set [4] is described as follows: Solubility. Particulars: H2O.
The test system of data set [5] is RAW 264.7 macrophages. The experiment in a line: Calcein AM cell viability assay. The data set is classed as cell-based, Murine. To be noted: RAW 264.7 cells, 24 h incubation, 1.56-100 μM. How it is done:
After 24 h of incubation, cells were washed twice with PBS, added with Calcein AM (1 μM, 100 μL in PBS) to each well and then incubated for 1 h in the dark. […] The measured fluorescence intensity (FI) is proportional to the number of viable cells.

Data set [6] concerns RAW 264.7 macrophages. The experiment in a line: Phototoxicity studies (irradiation, then Calcein AM viability). The data set is classed as cell-based, Murine. Particulars: RAW 264.7 cells, different concentrations, light 410 nm, 25 mW, 15 min. On the procedure: After 24 h incubation, wells were washed with PBS, added with 100 μL of DMEM and immediately irradiated with visible light using Max-303 Xenon Light Source (410 nm, Asahi Spectra) at a light intensity of […] for 15 min. Following irradiation cells were incubated overnight and viability was measured using Calcein AM as described above.

A short description of data set [7]: UV light photobleaching / photostability in solution. The data set is classed as physicochemical. On the procedure: Samples were irradiated with a 18 W LED UV flashlight (395 nm, Hinmay super bright LED). They were immersed in a 23±1° C. water bath during irradiation periods. (FIG. 5A-5B)
Data set [8] in a line: Fluorescence at different pH and in serum. Format: physicochemical. On the procedure:
as §1

Take `C[n+]1ccc(-c2ccc(-c3cc[n+](C)cc3)cc2)cc1` [2·2Cl, Me2ExBIPY·2Cl]: the cell viability in data set [1] came out at 68%.
On to `C[n+]1ccc(-c2nc3sc(-c4cc[n+](C)cc4)nc3s2)cc1` [4·2Cl, 4,4′-(Thiazolo[5,4-d]thiazole-2,5-diyl)bis(1-methylpyridinium), reference compound], for which the “fluorescence inside cells after incubation” value is “only a little fluorescence” in data set [2] and “very little fluorescence” in data set [2] (listed as Me2TzBIPY·2Cl). The “photobleaching inside cells under imaging conditions” value in data set [2] (RAW 264.7 macrophages) is “quenched completely”. The “time until fluorescence inside the cells is quenched” value in data set [2] (laser irradiation under imaging conditions) is no more than 3 s. The “fluorescence quantum yield ΦF” value in data set [3] is reported as 0.95. The water solubility entry in data set [4] was “Water soluble”. Further, the cell viability in data set [1] is recorded as roughly 75%.
Turning to `c1cc2ccc1C[n+]1ccc(cc1)-c1ccc(cc1)-c1cc[n+](cc1)Cc1ccc(cc1)C[n+]1ccc(cc1)-c1nc3sc(nc3s1)-c1cc[n+](cc1)C2` [6·4Cl, ExTz·4Cl], in data set [5], the “cell viability by Calcein AM versus MTT result” value is listed as “confirmed”. In addition, in data set [6], the phototoxicity entry was “no phototoxicity”. In data set [2], the “fluorescence inside cells after incubation” value is “brilliant blue emission”. Also, the “photobleaching inside cells under imaging conditions” value in data set [2] (RAW 264.7 macrophages) is on record as “without any hint of photobleaching”. In data set [2] (RAW 264.7 macrophages, confocal microscopy, listed as 6^4+), the cellular uptake result is “efficiently taken up”. For the same molecule, in data set [2] (live cells), the “fluorescence brightness inside the cells relative to reference 4^2+” value is listed as “six times brighter”. Moreover, in data set [2] (living macrophages, co-incubation with LysoTracker green), the cellular localization result is “enters the lysosomes”. The “photostability in H2O” value in data set [7] (H2O, several months under natural daylight) was “extremely photostable”. The “loss of absorbance intensity on UV irradiation (photobleaching)” value in data set [7] (UV flashlight 18 W, 395 nm, 60 min) is given as “a little loss of absorbance intensity”. In addition, the “fluorescence in serum compared with water” value in data set [8] (10% Fetal bovine serum) is given as “slightly lower fluorescence intensity”. The “change of fluorescence characteristics with pH” value in data set [8] (pH=1 to 7) is “without any change”. Further, the results for the “fluorescence quantum yield ΦF” value in data set [3] and in data set [3] (listed as 6^4+) were 1.00 and “unity”, respectively. Also, in data set [4], the water solubility result is on record as “highly water-soluble”. Moreover, in data set [1] (RAW 264.7 macrophages, loading concentration as high as 100 μM), the “cytotoxicity (in words)” value is “non-cytotoxic; also recorded: less cytotoxic”.
With `c1cc2ccc1C[n+]1ccc(cc1)-c1cc[n+](cc1)Cc1ccc(cc1)C[n+]1ccc(cc1)-c1cc[n+](cc1)C2` [BlueBox, BlueBox·4Cl], the cell viability entry in data set [1] was “over 96%”.
Same read-out and setting: the figure for `C[n+]1ccc(-c2cc[n+](C)cc2)cc1` [paraquat, dimethyl viologen] is roughly 63%.

Usually cell viability stands for a per cent measure of how many cells are alive, often set against a control. Lower therefore signals a greater loss of cells.
